Assay results as given in patent US10435399B2, “HDAC6 inhibitory heterocyclic compound” (TAKEDA PHARMACEUTICAL COMPANY LIMITED, priority 2017, dated 2019).

Columns and labels:
[1] = system: P301S mutant human tau (4R1N) Tg mouse; assay: Cognitive improvement action in neurodegenerative disease model mouse (novel object recognition test); format: in vivo
Experimental: Cognitive Improvement Action in Neurodegenerative Disease Model Mouse
A drug was suspended in 0.5% methyl cellulose to prepare a suspension for administration. The suspension was repeatedly administered into six month-old male P301S mutant human tau (4R1N) Tg mouse once a day for three months, and novel object recognition test was performed by the following method. The test is comprised of memory acquisition trial of object on the first day, and memory retention trial of familiar object and novel object on the second day. Drug was administered into the mouse 1 hr before the trials on both days. For acquisition trial, The mouse was put in a test box (30 cm×30 cm×25 cm) in which two identical objects were placed, and contact frequency and contact duration with the objects for 5 min were measured under 50 lux. […] Next day, one of the objects was replaced with new object, and contact frequency and contact duration with each object for 5 min were measured. Novelty Discrimination Index (NDI) as an index of cognitive function was calculated by novel object contact […]/(novel object contact duration+familiar object contact duration)%. […] After F test for vehicle administration wild-type group and vehicle administration Tg group, the significant difference between the two groups was analyzed by Student t-test or Welch test (indicated as ** p<0.01). […]

bone-marrow cells = assay: Micronucleus test in rats (bone-marrow cells); format: in vivo, rats (Crl:CD(SD)); details: rats, 1000 mg/kg and 2000 mg/kg once daily for 3 days
Experimental: Combination Assay of Micronucleus Test and Comet Assay in Rats […] Bone-marrow smear for micronucleus analysis was prepared as follows. Femur was cut at both ends, and washed with fetal bovine serum (FBS) in a centrifuging tube, and the obtained bone-marrow fluid was centrifuged for 5 min at room temperature. The supernatant was removed, and the cell sediment was suspended in the remaining small amount of the supernatant. A part of the suspension was dropped on a glass slide, and a cover glass was placed thereon to give a bone-marrow smear. The smear was dried well, and fixed with methanol for 5 min. The bone-marrow smear of negative control, that of treatment groups as well as the previously prepared bone-marrow smear of positive control group were encoded, and observed by the blind method. An acridine orange solution (40 μg/mL) was dropped (several drops) to the smear just before observation, and a cover glass was placed thereon. […] In addition, as an index of growth inhibitory effect on bone-marrow cell, total of 500 erythrocytes [immature erythrocytes+mature erythrocytes (ME)] per individual were observed, and immature erythrocyte rate (IE %) relative to the total number of erythrocytes was calculated.

[2] = system: liver and glandular stomach cells; assay: Comet assay in rats (liver and glandular stomach); format: in vivo, rats (Crl:CD(SD)); details: rats, 1000 mg/kg and 2000 mg/kg once daily for 3 days
Experimental: Combination Assay of Micronucleus Test and Comet Assay in Rats
The compound of Example 489 at doses of 1000 and 2000 mg/kg was orally administered to 8 to 9-week-old rats (Crl:CD(SD), five/group) once daily for 3 days, and micronucleus induction was evaluated in bone-marrow cells, and DNA damage was evaluated by DNA fragmentation of cell nucleus in the liver and glandular stomach.
Sample for comet assay was obtained from liver and glandular stomach by the following procedures. A part of left lateral lobe of liver was washed well with a cooled mincing buffer solution (Hanks' balanced salt solution containing 20 mmol/L EDTA and 10 vol % DMSO, pH7.5), and minced finely with dissecting scissors. This sample was kept on ice for 15 to 30 seconds, the precipitated large cell mass was removed, and the obtained cell suspension was kept on ice. Glandular stomach was added to a cooled mincing buffer solution, and kept on ice for 15 to 30 min. Then, the surface epithelium was removed by scraping gently twice, the stomach mucosa was washed well with a cooled mincing buffer solution, and the mucosa surface was taken out by scraping carefully four times or five times. This was kept on ice for 15 to 30 seconds, the precipitated large cell mass was removed, and the obtained cell suspension was kept on ice.
The liver and glandular stomach cell suspensions prepared by the above-mentioned procedures were added to 0.5 w/v % low-melting agarose so that the concentration became 10 vol % or less, 40 μL of the suspension was dropped to MAS-coated slide (Matsunami Glass Ind., Ltd.), and fixed to give a slide sample. The slide sample was immersed in a cooled cell lysate [an aqueous solution containing 2.5 mol/L sodium chloride, 100 mmol/L EDTA, 10 mmol/L tris(hydroxymethyl)aminomethane, 10 vol % DMSO and 1 vol % Triton X-100, pH 10.0], and kept overnight under light shielding in a refrigerator (2 to 8° C.).
The slide sample was washed with ultrapure water, set at random into an electrophoresis apparatus filled with an alkali buffer solution (an aqueous solution containing 0.3 mol/L sodium hydroxide and 1 mmol/L EDTA, pH >13) for electrophoresis. After confirming that the sample was completely immersed, the sample was left for 20 min to unwind the strands. Next, electrophorese was performed at a constant voltage of 0.7 to 1 V/cm (current is set about 0.30 A) for 20 min (the electrophoresis apparatus was kept on ice so that the alkali buffer solution for electrophoresis was kept at a constant temperature of 10° C. or below, during from the dissociation of the strands to electrophoresis). After electrophoresis, the slide sample was immersed in a neutralizing solution [0.4 mol/L aqueous tris(hydroxymethyl)aminomethane solution, pH 7.5] for 5 min or longer. Then, the slide sample was immersed in ethanol for 5 min or longer, and air-dried. […] The slide samples for negative control, test compound and positive control groups were encoded, and analyzed by the blind method. In each individual animal, 150 of suitable cells were selected for observation using a biological microscope with fluorescence attachment at 200-fold final magnification, and analyzed by image analysis software (Comet Assay IV, Perceptive Instruments Ltd.). The degree of the DNA damage was evaluated by % tail intensity calculated automatically from image analysis software. The median of the % tail intensity was calculated in each slide sample, and the average of the median was calculated in each individual. […]

## O=C1c2cc(-c3nnc(C(F)F)o3)cnc2CN1[C@@H]1CCCC[C@H]1NC(=O)C(F)(F)C(F)(F)F [Example 489, N-((1R,2R)-2-(3-(5-(difluoromethyl)-1,3,4-oxadiazol-2-yl)-5-oxo-5,7-dihydro-6H-pyrrolo[3,4-b]pyridin-6-yl)cyclohexyl)-2,2,3,3,3-pentafluoropropanamide]
[1]; 1 mg/kg once a day for three months
  Novelty Discrimination Index (NDI): significant improvement in NDI was observed
[1]; 3 mg/kg once a day for three months
  Novelty Discrimination Index (NDI): significant improvement in NDI was observed
bone-marrow cells
  genotoxic potential (judgement, micronucleus test and comet assay combined): negative
  micronucleus formation in bone-marrow cell: not induced
[2]
  DNA strand breakage in liver and glandular stomach cells: not induced
